Data set [1] can be described thus: Anticonvulsive activity by the electroshock method of Tooman et al. The following applies: in vivo; mouse; LD50 / ED50; read-out: Therapeutic ratio LD50 ED50. Type of data set: in vivo, mouse. The text has this:
(§1) The anticonvulsive activity of the compounds of the formula I and their non-toxic acid addition salts, as well as of certain isomers and homologs described in the prior art, was as certained by the electroshock method of Tooman et al, J. Neurophysiol.

A further data set concerns mouse. Described as above. Type of data set: in vivo. The following applies: Mus musculus, read-out: Anticonvulsive ED50.
Excerpt: as §1

A further data set can be described thus: in vivo. The settings on record: po, mouse.
Excerpt: as §1

Data set [2] relates to warmblooded animals, such as rats and mice. Put plainly: Pharmacodynamic properties (anticonvulsive, antiarrhythmic, sedative side effects) in warm-blooded animals. The class given is in vivo. The following applies: specific compounds.

The term ED50 denotes the dose that gives a 50% effect, or the effect in half of the subjects. As usually defined, the LD50 is the dose at which mortality reaches 50%. A low value points to greater toxicity.

Regarding `Cc1cccc(C)c1OCCCN` [D, 3-(2',6'-xylyloxy)-propylamine], in data set [1], the selectivity ratio was 2.7. In addition, in the data set on mouse, the ED50 was 216 mg/kg. The compound further came in with an LD50 in “in vivo” of 580 mg/kg.

Take `Cc1cccc(C)c1OCC(C)N` (stereo not shown) [A, 1-(2',6'-dimethyl-phenoxy)-2-amino-propane]: the ED50 in the data set with mouse came out at 23 mg/kg. Moreover, in data set [2], the effectiveness as anticonvulsives result is “especially effective”.

As to `Cc1cccc(C)c1OCC(C)N.Cl` (stereo not shown) [Example 1, 1-(2',6'-dimethyl-phenoxy)-2-amino-propane hydrochloride], the effectiveness as anticonvulsives entry in data set [2] was “especially effective”.

As for `CCCC(N)COc1c(C)cccc1C` (stereo not shown) [1-(2',6'-dimethyl-phenoxy)-2-amino-pentane], the effectiveness as anticonvulsives result in data set [2] is given as “especially effective”.

On to `Cc1cccc(C)c1OCCN` [C, 2-(2',6'-xylyloxy)-ethylamine], for which the selectivity ratio in data set [1] worked out at 6.4. For the same compound, the ED50 with mouse was 115 mg/kg. This compound had an LD50 in “in vivo” of 740 mg/kg.

On to `CNCCOc1c(C)cccc1C` [B, n-methyl-2-(2',6'-xylyloxy)-ethylamine], for which, in data set [1], the selectivity ratio came to 2.7. In addition, in the data set with mouse, the ED50 is 80 mg/kg. The compound also yielded a median lethal dose (LD50) in “in vivo” of 216 mg/kg.
